Legend:
Tumor necrosis factor [1] = target: T1, Tumor necrosis factor (Homo sapiens, UniProt P01375); test: Binding affinity to human GST-tagged TNF extracellular domain expressed in Escherichia coli BL21(DE3)pLysS cells by fluorescence spectrophotometric analysis
Tumor necrosis factor [2] = target: T1, Tumor necrosis factor; test: Binding affinity to recombinant human TNF assessed as inhibition of TNF-TNFR1 interaction incubated for 1 hr by ELISA
Tumor necrosis factor [3] = target: T1, Tumor necrosis factor; test: Inhibition of human TNF assessed as reduction in TNF-induced cell death of actinomycin D activated mouse L929 cells preincubated for 30 mins followed by cell addition measured after 18 to 24 hrs by crystal violet staining based spectrophotometric analysis

T1 sequence (P01375 whole entry, the tested form may be a part): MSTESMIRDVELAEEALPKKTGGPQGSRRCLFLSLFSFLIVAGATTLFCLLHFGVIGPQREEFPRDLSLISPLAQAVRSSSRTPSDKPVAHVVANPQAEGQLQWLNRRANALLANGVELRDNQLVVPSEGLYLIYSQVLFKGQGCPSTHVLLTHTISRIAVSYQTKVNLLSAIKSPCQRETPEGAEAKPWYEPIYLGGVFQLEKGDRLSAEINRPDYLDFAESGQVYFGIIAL

`O=C(c1coc2ccccc2c1=O)N1CCN(C(=O)c2cn(S(=O)(=O)c3cccc([N+](=O)[O-])c3)c3ccccc23)CC1` gave a Kd (Tumor necrosis factor [1]; read-out: Kd) of 16.8 µM and an IC50 (Tumor necrosis factor [2]) of 40 µM.
`CN(CCN(C)C(=O)c1cn(-c2cccc(C(F)(F)F)c2)c2ccc([N+](=O)[O-])cc12)C(=O)c1ccccc1F` was tested, and the Kd (Tumor necrosis factor [1]; read-out: Kd) was 10.3 µM and the IC50 (Tumor necrosis factor [3]) was “Not Active”.
In the case of `O=C(c1coc2ccccc2c1=O)N1CCN(C(=O)c2cn(-c3cccc(C(F)(F)F)c3)c3ccc([N+](=O)[O-])cc23)CC1`, the Kd (Tumor necrosis factor [1]) is reported as “Not Active” and the IC50 (Tumor necrosis factor [3]) is reported as “Not Active”.
`O=C(c1coc2ccccc2c1=O)N1CCN(Cc2cn(-c3cccc(C(F)(F)F)c3)c3ccc([N+](=O)[O-])cc23)CC1` was tested, and the Kd (Tumor necrosis factor [1]) was “Not Active” and the IC50 (Tumor necrosis factor [3]) was “Not Active”.
With `O=C(NCCCNC(=O)c1cn(S(=O)(=O)c2ccccc2)c2ccccc12)c1coc2ccccc2c1=O` the Kd (Tumor necrosis factor [1]; read-out: Kd) was 5.2 µM and the IC50 (Tumor necrosis factor [2]) was 40 µM.
In the case of `O=C(c1ccccc1)N1CCN(C(=O)c2cn(-c3cccc(C(F)(F)F)c3)c3ccccc23)CC1`, the Kd (Tumor necrosis factor [1]; read-out: Kd) is reported as 15.2 µM and the IC50 (Tumor necrosis factor [3]) is reported as “Not Active”.
`Cc1cc2occ(C(=O)N3CCN(C(=O)c4cn(-c5cccc(C(F)(F)F)c5)c5ccccc45)CC3)c(=O)c2cc1C` was tested, and the Kd (Tumor necrosis factor [1]; read-out: Kd) was 5.12 µM and the IC50 (Tumor necrosis factor [3]) was “Not Active”.
Compound `Nc1cccc(-n2cc(C(=O)N3CCN(C(=O)c4coc5ccccc5c4=O)CC3)c3cc(N)ccc32)c1` has a Kd (Tumor necrosis factor [1]; read-out: Kd) of 15.6 µM and an IC50 (Tumor necrosis factor [2]) of 40 µM.
Work on `O=C(c1coc2ccccc2c1=O)N1CCN(C(=O)c2cn(-c3cccc([N+](=O)[O-])c3)c3ccc([N+](=O)[O-])cc23)CC1` yielded a Kd (Tumor necrosis factor [1]; read-out: Kd) of 0.74 µM and an IC50 (Tumor necrosis factor [2]) of 20 µM.
Compound `CN(CCN(C)C(=O)c1cn(S(=O)(=O)c2cccc([N+](=O)[O-])c2)c2ccccc12)C(=O)c1coc2ccccc2c1=O` has a Kd (Tumor necrosis factor [1]; read-out: Kd) of 3.16 µM and an IC50 (Tumor necrosis factor [2]) of 40 µM.
`O=C(c1cn(-c2cccc(C(F)(F)F)c2)c2ccccc12)N1CCN(C(=O)n2ccnc2)CC1` was tested, and the Kd (Tumor necrosis factor [1]; read-out: Kd) was greater than 35 µM and the IC50 (Tumor necrosis factor [3]) was “Not Active”.
Compound `Cc1cc2occ(C(=O)N(C)CCN(C)C(=O)c3cn(-c4cccc(C(F)(F)F)c4)c4ccccc34)c(=O)c2cc1C` has a Kd (Tumor necrosis factor [1]; read-out: Kd) of 2.51 µM and an IC50 (Tumor necrosis factor [2]) greater than 60 µM.
With `Cc1cc2occ(CN3CCN(Cc4cn(-c5cccc(C(F)(F)F)c5)c5ccccc45)CC3)c(=O)c2cc1C` the Kd (Tumor necrosis factor [1]; read-out: Kd) was 10.1 µM and the IC50 (Tumor necrosis factor [2]) was 15 µM.
`O=C(NCCCCNC(=O)c1cn(S(=O)(=O)c2ccccc2)c2ccccc12)c1ccc2ccccc2c1` was tested, and the Kd (Tumor necrosis factor [1]; read-out: Kd) was 18.7 µM and the IC50 (Tumor necrosis factor [3]) was “Not Active”.
For `O=C(c1ccccc1F)N1CCN(C(=O)c2c[nH]c3ccc([N+](=O)[O-])cc23)CC1`, the Kd (Tumor necrosis factor [1]; read-out: Kd) was 17.9 µM and the IC50 (Tumor necrosis factor [3]) was “Not Active”.
In the case of `CN(CCN(C)C(=O)c1cn(S(=O)(=O)c2ccccc2)c2ccccc12)C(=O)c1ccccc1F`, the Kd (Tumor necrosis factor [1]) is reported as “Not Active” and the IC50 (Tumor necrosis factor [3]) is reported as “Not Active”.
`CN(CCN(C)C(=O)c1cn(-c2cccc(N)c2)c2ccccc12)C(=O)c1coc2ccccc2c1=O` was tested, and the Kd (Tumor necrosis factor [1]; read-out: Kd) was 35.2 µM and the IC50 (Tumor necrosis factor [3]) was “Not Active”.
For `CN(CCN(C)C(=O)c1cn(S(=O)(=O)c2ccccc2)c2ccccc12)C(=O)c1ccccc1`, the Kd (Tumor necrosis factor [1]; read-out: Kd) was 17.3 µM and the IC50 (Tumor necrosis factor [3]) was “Not Active”.
In the case of `O=C(NCCCNC(=O)c1cn(S(=O)(=O)c2ccccc2)c2ccccc12)c1ccccc1`, the Kd (Tumor necrosis factor [1]) is reported as “Not Active” and the IC50 (Tumor necrosis factor [3]) is reported as “Not Active”.
In the case of `CN(CCN(C)C(=O)n1ccnc1)C(=O)c1cn(S(=O)(=O)c2ccccc2)c2ccccc12`, the Kd (Tumor necrosis factor [1]) is reported as “Not Active” and the IC50 (Tumor necrosis factor [3]) is reported as “Not Active”.
With `O=C(c1ccc2ccccc2c1)N1CCN(Cc2cn(-c3cccc(C(F)(F)F)c3)c3ccc([N+](=O)[O-])cc23)CC1` the Kd (Tumor necrosis factor [1]) was “Not Active” and the IC50 (Tumor necrosis factor [3]) was “Not Active”.
For `CN(CCN(C)C(=O)c1cn(-c2cccc(C(F)(F)F)c2)c2ccc([N+](=O)[O-])cc12)C(=O)c1coc2ccccc2c1=O`, the Kd (Tumor necrosis factor [1]; read-out: Kd) was 13.3 µM and the IC50 (Tumor necrosis factor [3]) was “Not Active”.
For `O=C(c1cccs1)N1CCN(C(=O)c2c[nH]c3ccc([N+](=O)[O-])cc23)CC1`, the Kd (Tumor necrosis factor [1]; read-out: Kd) was 10.7 µM and the IC50 (Tumor necrosis factor [3]) was “Not Active”.
For `CN(CCN(C)C(=O)c1cn(S(=O)(=O)c2ccccc2)c2ccccc12)C(=O)c1ccc2ccccc2c1`, the Kd (Tumor necrosis factor [1]; read-out: Kd) was 25 µM and the IC50 (Tumor necrosis factor [3]) was “Not Active”.
`CN(CCN(C)C(=O)c1cn(-c2cccc([N+](=O)[O-])c2)c2ccccc12)C(=O)c1coc2ccccc2c1=O` was tested, and the Kd (Tumor necrosis factor [1]; read-out: Kd) was 12.2 µM and the IC50 (Tumor necrosis factor [3]) was “Not Active”.
For `O=C(c1coc2ccccc2c1=O)N1CCN(Cc2cn(-c3cccc(C(F)(F)F)c3)c3ccccc23)CC1`, the Kd (Tumor necrosis factor [1]; read-out: Kd) was 1.61 µM and the IC50 (Tumor necrosis factor [2]) was 20 µM.
`Nc1cccc(S(=O)(=O)n2cc(C(=O)N3CCN(C(=O)c4coc5ccccc5c4=O)CC3)c3ccccc32)c1` gave a Kd (Tumor necrosis factor [1]; read-out: Kd) of 5.45 µM and an IC50 (Tumor necrosis factor [2]) of 40 µM.
With `O=C(c1coc2ccccc2c1=O)N1CCN(C(=O)c2cn(-c3cccc([N+](=O)[O-])c3)c3ccccc23)CC1` the Kd (Tumor necrosis factor [1]; read-out: Kd) was 25.4 µM and the IC50 (Tumor necrosis factor [3]) was “Not Active”.
`Nc1cccc(-n2cc(C(=O)N3CCN(C(=O)c4coc5ccccc5c4=O)CC3)c3ccccc32)c1` was tested, and the Kd (Tumor necrosis factor [1]; read-out: Kd) was 14.1 µM and the IC50 (Tumor necrosis factor [2]) was 20 µM.
`O=C(c1ccccc1)N1CCN(Cc2cn(-c3cccc(C(F)(F)F)c3)c3ccccc23)CC1` showed a Kd (Tumor necrosis factor [1]; read-out: Kd) of 2.14 µM and an IC50 (Tumor necrosis factor [2]) of 20 µM.
For `CN(CCN(C)C(=O)c1cn(S(=O)(=O)c2ccccc2)c2ccccc12)C(=O)c1cccs1`, the Kd (Tumor necrosis factor [1]; read-out: Kd) was 8.22 µM and the IC50 (Tumor necrosis factor [3]) was “Not Active”.
With `O=C(c1ccc2ccccc2c1)N1CCN(C(=O)c2cn(S(=O)(=O)c3ccccc3)c3ccccc23)CC1` the Kd (Tumor necrosis factor [1]) was “Not Active” and the IC50 (Tumor necrosis factor [3]) was “Not Active”.
`O=C(NCCNC(=O)c1cn(S(=O)(=O)c2ccccc2)c2ccccc12)c1ccc2ccccc2c1` was tested, and the Kd (Tumor necrosis factor [1]; read-out: Kd) was greater than 35 µM and the IC50 (Tumor necrosis factor [3]) was “Not Active”.
With `O=C(c1ccc2ccccc2c1)N1CCN(C(=O)c2cn(-c3cccc(C(F)(F)F)c3)c3ccccc23)CC1` the Kd (Tumor necrosis factor [1]) was “Not Active” and the IC50 (Tumor necrosis factor [3]) was “Not Active”.
`CN(CCN(C)C(=O)c1cn(S(=O)(=O)c2cccc(N)c2)c2ccccc12)C(=O)c1coc2ccccc2c1=O` gave a Kd (Tumor necrosis factor [1]; read-out: Kd) of 0.95 µM and an IC50 (Tumor necrosis factor [2]) of 20 µM.
For `O=C(c1ccc2ccccc2c1)N1CCN(Cc2cn(-c3cccc(C(F)(F)F)c3)c3ccccc23)CC1`, the Kd (Tumor necrosis factor [1]; read-out: Kd) was 7.82 µM and the IC50 (Tumor necrosis factor [2]) was 40 µM.
For `Cc1ccc2occ(CN(C)CCN(C)Cc3cn(-c4cccc(C(F)(F)F)c4)c4ccccc34)c(=O)c2c1`, the Kd (Tumor necrosis factor [1]; read-out: Kd) was 18.6 µM and the IC50 (Tumor necrosis factor [2]) was 10 µM.
Compound `CN(CCN(C)C(=O)c1cn(S(=O)(=O)c2ccccc2)c2ccccc12)C(=O)c1coc2ccccc2c1=O` has a Kd (Tumor necrosis factor [1]; read-out: Kd) of 7 µM and an IC50 (Tumor necrosis factor [2]) greater than 60 µM.
For `Nc1cccc(-n2cc(C(=O)N3CCN(C(=O)C4COc5ccccc5C4=O)CC3)c3cc(N)ccc32)c1` (configuration not stated), the Kd (Tumor necrosis factor [1]) was “Not Active” and the IC50 (Tumor necrosis factor [3]) was “Not Active”.
`Cc1ccc2occ(CN3CCN(Cc4cn(-c5cccc(C(F)(F)F)c5)c5ccccc45)CC3)c(=O)c2c1` gave a Kd (Tumor necrosis factor [1]; read-out: Kd) of 4.78 µM and an IC50 (Tumor necrosis factor [2]) of 15 µM.
In the case of `O=C(c1coc2ccccc2c1=O)N1CCN(C(=O)c2cn(S(=O)(=O)c3ccccc3)c3ccccc23)CC1`, the Kd (Tumor necrosis factor [1]; read-out: Kd) is reported as 12.8 µM and the IC50 (Tumor necrosis factor [2]) is reported as 40 µM.

Reference: ChEMBL document CHEMBL3739283, “Synthesis and biological evaluation of potential small moleculeinhibitors of tumor necrosis factor” (Medchemcomm, 2015)
